Data published in US20170073371A1, “ANTIMICROBIAL PEPTIDES” (ROBERT BOSCH GESELLSCHAFT FÜR MEDIZINISCHE FORSCHUNG MBH, priority 2012, published 2017).
Where no end group is shown, it is not given here.

Key:
Escherichia coli [1] = assay: Antimicrobial radial diffusion assay (inhibition zone diameter); type: cell-based; conditions: FIG. 1b, 1c
Protocol: (§1) The letters indicate the amino acids using the single-letter code. […] The diameter of the inhibition zones represents the antimicrobial activity; a diameter of 2.5 mm is the diameter of an empty punched well in an agar plate which contains only carrier fluid (negative control). The experiments were repeated at least three times, and the mean plus standard deviation is shown.
(§2) Antimicrobial radial diffusion assays for anaerobic bacteria were carried out as described previously (see Schröder et al.: “Reduction of disulfide bonds unmasks potent antimicrobial activity of human beta-defensin 1”, Nature, 469: 419-423 (2011)). In brief, the bacteria were anaerobically cultured (Oxoid AnaeroGen”, England) for 24 hours at 37° C. on Columbia agar plates, then inoculated into liquid trypticase soy broth (TSB) medium and cultured again for 24 hours. The bacterial cultures were then washed and diluted to an optical density (OD620 nm)=0.1, of which 150 μl was used for the effectiveness assay. Incubation occurred under anaerobic conditions in 10 ml 10 mM sodium phosphate having a pH of 7.4 with 0.3 mg/ml TSB pwder and 1% (w/v) low-EEO agarose (agarose with very low EEO value)(Appli-Chem) with 0 or 2 mM dithiothreitol (DTT, Sigma Aldrich), with 1 μg synthetic, oxidized hBD-1 (Peptide Institute, Japan) or synthetic peptides, for three hours. An overcoating gel having 6% (w/v) TSB powder, 1% agarose, and 10 mM sodium phosphate buffer (pH 7.4 or 5.7), with or without DTT, was placed onto the plates. After incubation for 48 hours at 37° C. the diameters of the inhibition zones were measured. The experiments were repeated at least three times.

[2] = system: Bifidobacterium adolescentis; assay: as above; type: cell-based; conditions: for antimicrobial activity (diameter of inhibition zone): FIG. 1, radial diffusion
Protocol: as §1, §2

E. coli K12 = assay: Radial diffusion assay, D- versus L-amino acid octapeptide (FIG. 3a); type: cell-based, Escherichia coli
Protocol: Antimicrobial radial diffusion assays for anaerobic bacteria were carried out as described previously (see Schröder et al.: “Reduction of disulfide bonds unmasks potent antimicrobial activity of human beta-defensin 1”, Nature, 469: 419-423 (2011)). In brief, the bacteria were anaerobically cultured (Oxoid AnaeroGen”, England) for 24 hours at 37° C. on Columbia agar plates, then inoculated into liquid trypticase soy broth (TSB) medium and cultured again for 24 hours. The bacterial cultures were then washed and diluted to an optical density (OD620 nm)=0.1, of which 150 μl was used for the effectiveness assay. Incubation occurred under anaerobic conditions in 10 ml 10 mM sodium phosphate having a pH of 7.4 with 0.3 mg/ml TSB pwder and 1% (w/v) low-EEO agarose (agarose with very low EEO value)(Appli-Chem) with 0 or 2 mM dithiothreitol (DTT, Sigma Aldrich), with 1 μg synthetic, oxidized hBD-1 (Peptide Institute, Japan) or synthetic peptides, for three hours. An overcoating gel having 6% (w/v) TSB powder, 1% agarose, and 10 mM sodium phosphate buffer (pH 7.4 or 5.7), with or without DTT, was placed onto the plates. After incubation for 48 hours at 37° C. the diameters of the inhibition zones were measured. The experiments were repeated at least three times. […]

[3] = system: (opportunistic) pathogenic microorganisms; assay: Flow cytometric antimicrobial assay (membrane depolarization), all tested pathogens; type: cell-based; conditions: 50 μg/ml; E. coli, S. aureus, C. albicans, B. fragilis; FIG. 2
Protocol: (§3) The following peptides were investigated: modified octapeptide (SEQ ID NO. 4), wild type octapeptide (SEQ ID NO. 1), alanine-mutated octapeptide (SEQ ID NO. 7), and a heptapeptide (SEQ ID NO. 8) (each 50 μg/ml) were tested in a flow cytometric antimicrobial effectiveness assay against Escherichia coli, Staphylococcus aureus, Candida albicans, and Bacteroides fragilis. The letters once again indicate the respective amino acids in the one-letter code. The experiments were repeated twice in double batches, and the mean plus standard deviation is shown;
(§4) Flow cytometric antimicrobial assays with which the membrane depolarization of the bacteria and fungi were measured were carried out as previously described (see Nuding et al., “A flow cytometric assay to monitor antimicrobial activity of defensins and cationic tissue extracts,” Journal of Microbiological Methods, 65: 335-380 (2006)).
(§5) In brief, 1.5×10^6 cells per ml were incubated in 1:6-diluted Schaedler medium at 37° C. with peptides at a final volume of 50 μl. The defensins were dissolved in 0.01% acetic acid and were added to the bacterial/fungal suspensions at the final concentrations indicated. Bacterial or fungal suspensions that had been incubated with solvent (0.01% acetic acid) served here as controls for viability. After 90 minutes the suspensions were incubated for 10 minutes with 1 mg/ml of the membrane-potential-sensitive dye DiBAC4(3) ([bis-(1,3-dibutylbarbiturate)trimethine oxanol]) (Invitrogen, USA). The suspensions were centrifuged, and sediments resuspended in […] phosphate-buffered saline. The percentage of depolarized fluorescing bacteria or fungi in the suspension was determined using a FACSCalibur flow cytometer (Becton-Dickinson, USA) utilizing Cell Quest software (Becton-Dickinson). The experiments were repeated twice, each in duplicate.

[4] = Reversed-phase HPLC analysis of hydrophobicity; type: physicochemical; conditions: data not shown
Protocol: For analysis by high performance liquid chromatography (HPLC), the octapeptides were mixed with 0.1% (v/v) trifluoracetic acid (TFA) and analyzed with an Agilent 1200 system (Agilent) and a Synergi reversed phase (RP) column (250×4.6 mm, 4 μm, Phenomenex, Germany).
In further experiments a reversed-phase HPLC analysis was carried out in order to investigate the hydrophobicity of the tested peptides (data not shown).

Escherichia coli [5] = assay: Flow cytometric antimicrobial assay (membrane depolarization); type: cell-based; conditions: 50 μg/ml; FIG. 2
Protocol: as §3, §4, §5

Candida albicans = assay: as above; type: cell-based; conditions: 50 μg/ml; FIG. 2
Protocol: as §3, §4, §5

Staphylococcus aureus = assay: as above; type: cell-based; conditions: 50 μg/ml; FIG. 2
Protocol: as §3, §4, §5

Bacteroides fragilis = assay: as above; type: cell-based; conditions: 50 μg/ml; FIG. 2
Protocol: as §3, §4, §5

[6] = system: commensal bacteria of the human intestinal flora; assay: Antimicrobial radial diffusion assay of human beta-defensins at pH 7.4 or 5.7, with or without DTT; type: cell-based
Protocol: as §2
In the present case hBD-1 and its antimicrobial activity have been further investigated. For this, the antimicrobial activity of the three human beta-defensins hBD-1, -2, and -3 with respect to commensal bacteria of the human intestinal flora were tested under standard conditions (pH 7.4) and slightly acidic conditions (pH 5.7); under both conditions, reducing conditions were also tested by adding 2 mM of the chemical reducing agent dithiothreitol (DTT) to the growth medium.

[7] = Schröder et al., Nature 469:419-423 (2011); cited from earlier work

Substance | antimicrobial activity (diameter of inhibition zone) (Escherichia coli [1]) | antimicrobial activity (diameter of inhibition zone) [2] | effectiveness (depolarized bacteria or fungi) [3] | further results
RGKAKACK [Cys6 exchanged, octapeptide with Cys6 exchanged for alanine] | increased the antimicrobial activity | activity was greatly decreased |  | 
RGKAKCAK [Cys7 exchanged, octapeptide with Cys7 exchanged for alanine] | increased the antimicrobial activity | activity was greatly decreased |  | 
RGKAKCCK (not fully specified (some residues); cysteine pairing not given here; also: termini modified in some versions, not given here) |  |  |  | activity compared with the peptide made up of L-amino acids ([2]; FIG. 3b): elevated activity; activity compared with the peptide made up of L-amino acids (E. coli K12): weaker activity
RGKAKCCK [wild type octapeptide, octapeptide of the eight terminal amino acids of the carboxy terminus of hBD-1] | also had antimicrobial activity | greater antimicrobial activity than the previously tested heptapeptide | only marginal in most cases | 
ac-RGKAKCCK-NH2 (Ac-RGKAKCCK-NH2; cysteine pairing not given here) [modified octapeptide] | did not differ significantly by comparison with the wild type peptide | rose sharply |  | hydrophobicity (order of elution from RP column) [4]: highest hydrophobicity; activity (depolarized bacteria) (Escherichia coli [5]): but not with respect to Escherichia coli and Bacteroides fragilis; activity (depolarized fungi) (Candida albicans): outstanding activity; activity (depolarized bacteria) (Staphylococcus aureus): outstanding activity; activity (depolarized bacteria) (Bacteroides fragilis): but not with respect to Escherichia coli and Bacteroides fragilis
alanine-mutated octapeptide: alanine-mutated octapeptide; both cysteines exchanged (RGKAKAAK) [reference compound] | almost entirely shut down antimicrobial activity | brought activity to a complete standstill | only marginal in most cases | 
hBD-1: human beta-defensin 1, obtained from Peptide Institute Inc. (DHYNCVSSGGQCLYSACPIFTKIQGTCYRGKAKCCK; disulfide (positions not given here); UniProt P60022 33-68, looked up) |  |  |  | activation of antimicrobial activity by reduction ([6]; pH 5.7, 2 mM DTT, data not shown): activation was not observed; antimicrobial activity, effect of reduction ([6]; reducing conditions, 2 mM dithiothreitol (DTT) in growth medium, data not shown): became active by reduction; antimicrobial activity ([6]; standard conditions (pH 7.4), data not shown): largely inactive; antimicrobial activity under reducing conditions [7]: elevated antimicrobial activity
hBD-3: human beta-defensin, obtained from Peptide Institute Inc. (GIINTLQKYYCRVRGGRCAVLSCLPKEEQIGKCSTRGRKCCRRKK; ends and bridges not checked; cysteine pairing not given here; UniProt P81534 23-67, looked up) |  |  |  | antimicrobial activity compared with the other two defensins ([6]; in most cases, tested commensals): strongest activity
wild type heptapeptide: heptapeptide that represents the seven terminal amino acids of hBD-1 (GKAKCCK) [reference compound] |  | highest activity | only marginal in most cases | 
